Assays:
Type in all cases: functional
Rattus norvegicus [1] = assay: Tested for the ability to inhibit the pressor response to angiotensin II (AII) by intravenous administration at the dose of 1.0 mg/kg with duration of >6, <24 hr in two rats
Rattus norvegicus [2] = assay: Tested for the ability to inhibit the pressor response to angiotensin II (AII) by oral administration at the dose of 1.0 mg/kg with duration of>6, <24 hr in two rats
Rattus norvegicus [3] = assay: Tested for the ability to inhibit the pressor response to angiotensin II (AII) by oral administration at the dose of 1.0 mg/kg with duration of>6, <24 hr in four rats
Rattus norvegicus [4] = assay: Tested for the ability to inhibit the pressor response to angiotensin II (AII) after (iv) administration at the dose of 1.0 mg/kg with duration of >24 hr in four rats

CCCCc1nn(-c2ccccc2C(F)(F)F)c(=O)n1Cc1ccc(-c2ccccc2S(=O)(=O)NC(=O)OC(C)(C)C)cc1
inhibition in vivo at 1 mg/kg (Rattus norvegicus [1]): 83% | inhibition in vivo at 1 mg/kg (Rattus norvegicus [2]): 87%

CCCCc1nn(-c2ccccc2C(F)(F)F)c(=O)n1Cc1ccc(-c2ccccc2S(=O)(=O)NC(=O)c2ccccc2Cl)cc1
inhibition in vivo at 1 mg/kg (Rattus norvegicus [3]): 85% | inhibition in vivo at 1 mg/kg (Rattus norvegicus [4]): 91%

— ChEMBL document CHEMBL1127303, “Triazolinone biphenylsulfonamides as angiotensin II receptor antagonists with high affinity for both the AT1 and AT2 subtypes” (J Med Chem, 1994)
